Here are results for nine molecules from US8343488B2, “Diagnosis and treatment of human dormancy-related sequellae” (priority 2002, dated 2013).

Like-named read-outs stand apart in the source and are kept apart here.

The test system of data set [1] is SLE, hypocomplementemic urticarial vasculitis. The following applies: in vivo.
The conditions of data set [2]: cited from earlier work.
The test system of the next data set is Cpn infected macrophages. The following applies: in vitro; cited from earlier work.
The next data set concerns recurrent bronchitis. Nature of the data set: Case report: post-radiation recurrent bronchitis, antibacterial and antifungal therapy. It counts as in vivo, human. Conditions: 500 mg QD #20; sputum positive for Klebsiella pneumoniae. An excerpt: It is generally known that ACC is not usually sensitive to chemotherapy or standard […] beam radiation. Higher energy radiation doses, such as neutron beam radiation, have shown some promise and referral to the Cancer Center for radiation treatment was arranged. Under the care of a physician, 16 sessions of neutron beam radiation were provided, followed by two sessions of endotracheal brachytherapy with proton radiation. The patient tolerated the radiation relatively well and returned to work. They were warned that chronic bronchitis might follow airway radiation from the loss of salivary cells and ciliary cells in the bronchus. The patient was screened for recurrence twice yearly with neck MRI and lung CT for 3 years and there was no evidence of recurrence. Post radiation year 4 brought recurrent bronchitis that would remit temporarily with antibiotic therapy.
Bronchoscopy was performed in January of 2004 to better determine the source of recurrent bronchitis. There was no evidence of cancer recurrence (FIG. 1). […] Brochoscopic washings were also sent for fungal cultures. The patient's IgG levels to Penicillium and Aspergillus were elevated, while the routine fungal cultures from bronchial washings were negative. […] The patient reported reduced fatigue, reduced inhalant allergies and a slight reduction in volume of sputum production. […]

In the next data set the test system is seropositive RA. Briefly: Case report: Chlamydia pneumoniae-related rheumatoid arthritis. It counts as in vivo, human. Conditions: low dose. As for the experimental part: A person with seropositive RA with joint swelling in their hands, elbows, knees and feet had negative serology for Chlamydia pneumoniae infection, along with elevated rT3/fT3 ratio and symptoms of fibromyalgia. They were initially treated with immunosuppressive medication including Prednisone 20 mg QD, Methotrexate 15 mg Qweek, antiTNF therapy with Humira injections twice monthly with limited response of less than ACR 20. […] After failing immunosuppressive therapy, a course of antibiotics designed to treat Chlamydia pneumoniae infection was prescribed. The antibiotic protocol is consistent with that recommended by Dr. Charles Stratton of Vanderbilt University for Chlamydia pneumoniae infection. […] This example illustrates the unreliable nature of currently available tests for Chlamydia pneumoniae infection and that patients with autoimmune disease with negative tests for Chlamydia pneumoniae infection are likely to have seronegative Chlamydia pneumoniae infection and respond to antibiotics. The use of T3 and antifungal medication in conjunction with antibiotic treatment has been beneficial.

The next data set relates to Alzheimer's dementia. Nature of the data set: Case report: DRS-2 in a patient with Alzheimer's dementia. The following applies: human, in vivo. The procedure: A retired attorney with Alzheimer's dementia was tested with the DRS-2 and found to be in the first percentile overall before T3 treatment and in the 25th percentile after 3 months of slow-release T3 therapy. Some parameters such as “conceptualization” increase dramatically from the 4th to the 50th percentile and “attention” improved from the 35th to the 89th percentile. […] Serology for Chlamydia pneumoniae confirmed both IgG and IgA antibodies (consistent with chronic or relapsing infection) and treatment with antibiotic medication has provided additional improvement in cognitive function. Prophylactic treatment with low dose antifungal medication is a component of this treatment.

The test system of data set [3] is stage-4 metastatic breast cancer. Nature of the data set: Case report: antibiotic treatment of metastatic breast cancer. It counts as in vivo, human. As for the experimental part: A person was diagnosed with stage-4 metastatic breast cancer with bone, pelvic and lung involvement. Treatment was initiated on Jan. 23, 2005 with Amoxicillin 500 mg 1 QD, Ketek 400 mg 1 QD, Flagyl 500 mg 2 BID. The dose of Flagyl was […] to 500 mg 1 BID on Feb. 1, 2005. By Feb. […] Hospitalization was necessary. […] The attending physicians presumed the cause of their condition was C. difficile related despite the negative tests and treated them with metronidazole. […] They were encouraged to discontinue antibiotic treatment and enter hospice for palliative care.

Data set [4] relates to SLE, hypocomplementemic urticarial vasculitis. Briefly: Case report: treatment of systemic lupus erythematosus.
For another data set, the system named is pancreatic cancer. The following applies: in vivo.
Data set [5] has as its system stage 4-metastatic pancreatic cancer. Briefly: Case report: antibiotic treatment of pancreatic cancer (Example 3). In kind it is in vivo, human. Conditions: before antibiotic treatment.
Description: Ascites had developed and paracentesis was performed 3 days prior to our first visit. They were having difficulty breathing and eating due to abdominal distention from ascites. […] Treatment with Amoxicillin 500 mg 1 QD, Ketek 500 mg 1 QD, and Flagyl 500 mg 1-2 QD was initiated. […] 4, 2005 and was tolerating the above protocol. Their lab results from Jan. […] 27, 2004:
The dose of Flagyl was increased to 1500 mg on Jan. […] 27, 2005.

With `Cc1oncc1C(=O)Nc1ccc(C(F)(F)F)cc1` [Arava], the tolerability of trial result in [1] is “poorly tolerated”. For the molecule `O=C1O[C@H]([C@@H](O)CO)C(O)=C1O` [Ascorbic acid], the half life in data set [2] was 30 min. Further, the “effect on Cpn in infected macrophages” value in the data set with Cpn infected macrophages is “driving the organism into cryptic phase”. Turning to `C[C@H]1COc2c(N3CCN(C)CC3)c(F)cc3c(=O)c(C(=O)O)cn1c23` [Levoquin], the sputum production entry in the data set with recurrent bronchitis is listed as “reduced sputum production for three weeks”. Consider `N[C@@H](Cc1cc(I)c(Oc2ccc(O)c(I)c2)c(I)c1)C(=O)O` [T3, triiodothyronine], for which, in the data set with seropositive RA, the “fatigue and muscle pain” value was “fatigue and muscle pain improved”. In addition, in the data set with Alzheimer's dementia, the “effect of discontinuation of supplementation” value is given as “worsening of Alzheimer's symptoms”. `CN[C@H](CC(C)C)C(=O)N[C@H]1C(=O)N[C@@H](CC(N)=O)C(=O)N[C@H]2C(=O)N[C@H]3C(=O)N[C@H](C(=O)N[C@H](C(=O)O)c4cc(O)cc(O)c4-c4cc3ccc4O)[C@H](O)c3ccc(c(Cl)c3)Oc3cc2cc(c3O[C@@H]2O[C@H](CO)[C@@H](O)[C@H](O)[C@H]2O[C@H]2C[C@](C)(N)[C@H](O)[C@H](C)O2)Oc2ccc(cc2Cl)[C@H]1O` [Vancomycin]: in data set [3] (in hospital), the symptoms after switch result is “symptoms gradually improved six days later”.

Consider `CCN(CCO)CCCC(C)Nc1ccnc2cc(Cl)ccc12` (stereo not shown) [hydroxychloroquine], for which, in [4] (before October 2003), the “synovitis, hypocomplementemic urticarial rash and proteinuria” value was “responding to treatment”.

With `CN(Cc1cnc2nc(N)nc(N)c2n1)c1ccc(C(=O)N[C@@H](CCC(=O)O)C(=O)O)cc1` [methotrexate], in data set [4] (additional immunosuppressive therapy), the tolerability of trial entry is reported as “poorly tolerated”. For `Cc1ncc([N+](=O)[O-])n1CCO` [metronidazole], the “tolerability of increased dose” value in the data set on pancreatic cancer was “well tolerated”. For the same molecule, the adverse reaction result in [3] (after one week of increased doses) is “severe depression, hypotension, hypothermia, emesis and diarrhea”. Moreover, the “symptoms of presumed C. difficile diarrhea” value in data set [3] (in hospital, C. difficile tests negative) is reported as “symptoms did not remit”.

In the case of `CCCCCOC(=O)Nc1nc(=O)n([C@@H]2O[C@H](C)[C@@H](O)[C@H]2O)cc1F` [zoloda], in data set [5], the outcome of chemotherapy is on record as “failed”.
